# Source: patent US8563714B2, “Bridged spiro [2.4] heptane derivatives as ALX receptor and/or FPRL2 agonists” (Actelion Pharmaceuticals Ltd., priority 2009, dated 2013)
# Assays:
# human FPRL2 = target: T1, human FPRL2 (Homo sapiens, UniProt P25089); assay: Intracellular calcium measurements (FLIPR), agonistic activity in HEK293-hFPRL2-Gα16 cells; format: cell-based; conditions: Fluo-4 calcium FLIPR, normalized to GLY14-Humanin 100 nM
# T1 construct: expressed in transfected cells; host or cells: HEK293 (HEK293-hFPRL2-Gα16)
# T1 sequence (P25089 1-353): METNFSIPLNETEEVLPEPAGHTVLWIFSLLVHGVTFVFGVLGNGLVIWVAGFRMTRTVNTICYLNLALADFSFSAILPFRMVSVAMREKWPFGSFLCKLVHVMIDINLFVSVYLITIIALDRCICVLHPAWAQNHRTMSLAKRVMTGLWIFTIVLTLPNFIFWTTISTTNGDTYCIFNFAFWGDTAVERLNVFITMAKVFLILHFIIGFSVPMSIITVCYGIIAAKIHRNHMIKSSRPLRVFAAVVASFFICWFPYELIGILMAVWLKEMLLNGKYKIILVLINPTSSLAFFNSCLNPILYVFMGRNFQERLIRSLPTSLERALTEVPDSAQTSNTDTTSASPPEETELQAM
# Method in brief: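 Peak values after baseline subtraction are expressed relative to 100 nM Gly14-Humanin; compounds diluted in assay buffer from 10 mM DMSO stocks.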
# human ALX receptor = target: T2, human ALX receptor (Homo sapiens, UniProt P25090); assay: Intracellular calcium measurements (FLIPR), agonistic activity in HEK293-hALXR-Gα16 cells; format: cell-based; conditions: Fluo-4 calcium FLIPR, normalized to WKYMVm 10 nM
# T2 construct: expressed in transfected cells; host or cells: HEK293 (HEK293-hALXR-Gα16)
# T2 sequence (P25090 1-351): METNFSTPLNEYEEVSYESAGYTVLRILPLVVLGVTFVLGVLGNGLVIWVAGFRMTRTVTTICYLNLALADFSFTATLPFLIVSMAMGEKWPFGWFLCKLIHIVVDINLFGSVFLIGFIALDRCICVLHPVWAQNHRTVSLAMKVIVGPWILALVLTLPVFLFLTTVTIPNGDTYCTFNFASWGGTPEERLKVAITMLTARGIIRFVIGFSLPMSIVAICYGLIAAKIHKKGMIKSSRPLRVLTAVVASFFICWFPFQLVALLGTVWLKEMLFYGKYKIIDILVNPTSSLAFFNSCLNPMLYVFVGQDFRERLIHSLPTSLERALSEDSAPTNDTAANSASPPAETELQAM
# Method in brief: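 HEK293 cells expressing hALXR and Gα16 were loaded with 1 μM Fluo-4 AM and 20 mM HEPES for 60 min at 37°C, then exposed to serially diluted compound. FLIPR fluorescence was read at ex 488/em 540 nm. Baseline-subtracted peak responses were normalized to 10 nM WKYMVm.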
SMILES,EC50 (human FPRL2) [nM],EC50 (human ALX receptor) [nM]
"O=C(NCCCN1CCCC1)[C@H]1[C@H](C(=O)NCc2ccc(Br)cc2)[C@@H]2C=C[C@H]1C21CC1 (racemic) [Example 236, (5R*)—N^5-(4-Bromo-phenyl-methyl)-(6R*)—N^6-(3-pyrrolidin-1-yl-propyl)-(4S*,7R*)-[4,7-ethenylene-spiro[2.4]heptane]-5,6-dicarboxamide]",292,49
"O=C(NCCCN1CCCC1)[C@H]1[C@H](C(=O)Nc2ncc(Br)s2)[C@@H]2C=C[C@H]1C21CC1 (racemic) [Example 237, (5R*)—N^5-(5-Bromo-thiazol-2-yl)-(6R*)—N^6-(3-pyrrolidin-1-yl-propyl)-(4S*,7R*)-[4,7-ethenylene-spiro[2.4]heptane]-5,6-dicarboxamide]",542,305
"CC(=O)c1coc(CNC(=O)[C@H]2[C@H](C(=O)NCCCCN3CCCC3)[C@H]3C=C[C@@H]2C32CC2)n1 (racemic) [Example 243, (5R*)—N^5-(4-Acetyl-oxazol-2-yl-methyl)-(6R*)—N^6-(4-pyrrolidin-1-yl-butyl)-(4S*,7R*)-[4,7-ethenylene-spiro[2.4]heptane]-5,6-dicarboxamide]",2300,170
"CC(=O)c1csc(CNC(=O)[C@H]2[C@H](C(=O)NCC(C)C)[C@H]3C=C[C@@H]2C32CC2)n1 (racemic) [Example 244, (5R*)—N^5-(4-Acetyl-thiazol-2-yl-methyl)-(6R*)—N^6-(isobutyl)-(4S*,7R*)-[4,7-ethenylene-spiro[2.4]heptane]-5,6-dicarboxamide]",> 25000,369
"CC(C)CNC(=O)[C@H]1[C@H](C(=O)NCc2ccc(Br)cc2)[C@@H]2C=C[C@H]1C21CC1 (racemic) [Example 246, (5R*)—N^5-(4-Bromo-phenyl-methyl)-(6R*)—N^6-(isobutyl)-(4S*,7R*)-[4,7-ethenylene-spiro[2.4]heptane]-5,6-dicarboxamide]",5330,191
"CC(=O)c1csc(CNC(=O)[C@H]2[C@H](C(=O)NCCCc3nc4ccccc4[nH]3)[C@H]3C=C[C@@H]2C32CC2)n1 (racemic) [Example 247, (5R*)—N^5-(4-Acetyl-thiazol-2-yl-methyl)-(6R*)—N^6-(3-(1H-benzoimidazol-2-yl)-propyl)-(4S*,7R*)-[4,7-ethenylene-spiro[2.4]heptane]-5,6-dicarboxamide]",1080,106
"O=C(NCCCc1nc2ccccc2[nH]1)[C@H]1[C@H](C(=O)Nc2ncc(Br)s2)[C@@H]2C=C[C@H]1C21CC1 (racemic) [Example 248, (5R*)—N^5-(5-Bromo-thiazol-2-yl)-(6R*)—N^6-(3-(1H-benzoimidazol-2-yl)-propyl)-(4S*,7R*)-[4,7-ethenylene-spiro[2.4]heptane]-5,6-dicarboxamide]",3060,174
"O=C(NCCCc1nc2ccccc2[nH]1)[C@H]1[C@H](C(=O)NCc2ccc(Br)cc2)[C@@H]2C=C[C@H]1C21CC1 (racemic) [Example 249, (5R*)—N^5-(4-Bromo-phenyl-methyl)-(6R*)—N^6-(3-(1H-benzoimidazol-2-yl)-propyl)-(4S*,7R*)-[4,7-ethenylene-spiro[2.4]heptane]-5,6-dicarboxamide]",47,216
"COc1ccc(NC(=O)[C@H]2[C@H](C(=O)NCCCCN3CCCC3)[C@H]3C=C[C@@H]2C32CC2)cn1 (racemic) [Example 250, (5R*)—N^5-(2-Methoxy-pyrid-5-yl)-(6R*)—N^6-(4-pyrrolidin-1-yl-butyl)-(4S*,7R*)-[4,7-ethenylene-spiro[2.4]heptane]-5,6-dicarboxamide]",746,673
"O=C(NCCCCN1CCCC1)[C@H]1[C@H](C(=O)Nc2cnc(Br)cn2)[C@@H]2C=C[C@H]1C21CC1 (racemic) [Example 251, (5R*)—N^5-(2-Bromo-pyrazin-5-yl)-(6R*)—N^6-(4-pyrrolidin-1-yl-butyl)-(4S*,7R*)-[4,7-ethenylene-spiro[2.4]heptane]-5,6-dicarboxamide]",558,7.9
"O=C(NCCCCN1CCCC1)[C@H]1[C@H](C(=O)Nc2ccc(C(F)(F)F)cn2)[C@@H]2C=C[C@H]1C21CC1 (racemic) [Example 252, (5R*)—N^5-(5-Trifluoromethyl-pyridin-2-yl)-(6R*)—N^6-(4-pyrrolidin-1-yl-butyl)-(4S*,7R*)-[4,7-ethenylene-spiro[2.4]heptane]-5,6-dicarboxamide]",210,82
"O=C(NCCCCN1CCCC1)[C@H]1[C@H](C(=O)Nc2ccc3ncoc3c2)[C@@H]2C=C[C@H]1C21CC1 (racemic) [Example 254, (5R*)—N^5-(Benzo[d]oxazol-6-yl)-(6R*)—N^6-(4-pyrrolidin-1-yl-butyl)-(4S*,7R*)-[4,7-ethenylene-spiro[2.4]heptane]-5,6-dicarboxamide]",67,492
"Cc1cc(CNC(=O)[C@H]2[C@H](C(=O)NCCCCN3CCCC3)[C@H]3C=C[C@@H]2C32CC2)no1 (racemic) [Example 255, (5R*)—N^5-(5-Methyl-isoxazol-3-yl-methyl)-(6R*)—N^6-(4-pyrrolidin-1-yl-butyl)-(4S*,7R*)-[4,7-ethenylene-spiro[2.4]heptane]-5,6-dicarboxamide]",489,40
"Cc1csc(NC(=O)[C@H]2[C@H](C(=O)NCCCCN3CCCC3)[C@H]3C=C[C@@H]2C32CC2)n1 (racemic) [Example 256, (5R*)—N^5-(4-Methyl-thiazol-2-yl)-(6R*)—N^6-(4-pyrrolidin-1-yl-butyl)-(4S*,7R*)-[4,7-ethenylene-spiro[2.4]heptane]-5,6-dicarboxamide]",348,6720
"O=C(NCCCCN1CCCC1)[C@H]1[C@H](C(=O)Nc2nnc(C(F)(F)F)s2)[C@@H]2C=C[C@H]1C21CC1 (racemic) [Example 257, (5R*)—N^5-(5-Trifluoromethyl-1,3,4-thiadiazol-2-yl)-(6R*)—N^6-(4-pyrrolidin-1-yl-butyl)-(4S*,7R*)-[4,7-ethenylene-spiro[2.4]heptane]-5,6-dicarboxamide]",167,6010
"O=C(NCCF)[C@H]1[C@H](C(=O)Nc2ncc(Br)s2)[C@@H]2C=C[C@H]1C21CC1 (racemic) [Example 259, (5R*)—N^5-(5-Bromo-thiazol-2-yl)-(6R*)—N^6-(2-fluoro-ethyl)-(4S*,7R*)-[4,7-ethenylene-spiro[2.4]heptane]-5,6-dicarboxamide]",> 25000,354
"O=C(NCCN1CCNC1=O)[C@H]1[C@H](C(=O)Nc2ncc(Br)s2)[C@@H]2C=C[C@H]1C21CC1 (racemic) [Example 260, (5R*)—N^5-(5-Bromo-thiazol-2-yl)-(6R*)—N^6-((2-imidazolidin-2-on)-1-yl-ethyl)-(4S*,7R*)-[4,7-ethenylene-spiro[2.4]heptane]-5,6-dicarboxamide]",8730,9.1
"CC(=O)c1csc(CNC(=O)[C@H]2[C@H](C(=O)NCCC(N)=O)[C@H]3C=C[C@@H]2C32CC2)n1 (racemic) [Example 261, (5R*)—N^5-(4-Acetyl-thiazol-2-yl-methyl)-(6R*)—N^6-(3-amino-3-oxopropyl)-(4S*,7R*)-[4,7-ethenylene-spiro[2.4]heptane]-5,6-dicarboxamide]",> 25000,297
"CCN(CC)CCCCNC(=O)[C@H]1[C@H](C(=O)NCc2nc(C(C)=O)cs2)[C@@H]2C=C[C@H]1C21CC1 (racemic) [Example 262, (5R*)—N^5-(4-Acetyl-thiazol-2-yl-methyl)-(6R*)—N^6-(4-diethylamino-butyl)-(4S*,7R*)-[4,7-ethenylene-spiro[2.4]heptane]-5,6-dicarboxamide]",106,97
"CCOCCCNC(=O)[C@H]1[C@H](C(=O)NCc2ccc(Br)cc2)[C@@H]2C=C[C@H]1C21CC1 (racemic) [Example 263, (5R*)—N^5-(4-Bromophenyl-methyl)-(6R*)—N^6-(3-ethoxy-propyl)-(4S*,7R*)-[4,7-ethenylene-spiro[2.4]heptane]-5,6-dicarboxamide]",4460,899
"CC(=O)c1csc(CNC(=O)[C@H]2[C@H](C(=O)NCCCN3CCCC3)[C@H]3C=C[C@@H]2C32CC2)n1 (racemic) [Example 264, (5R*)—N^5-(4-Acetyl-thiazol-2-yl-methyl)-(6R*)—N^6-(3-pyrrolidino-propyl)-(4S*,7R*)-[4,7-ethenylene-spiro[2.4]heptane]-5,6-dicarboxamide]",835,140
